From patent US20240108683A1, “Method for Side Effect Reduction in the Use of Statins Via Physiologically Synthesized Glutathione” (Proimmune Co. LLC, priority 2014, published 2024)

Key:
[1] = as compared to L-cysteine; cited from earlier work
[2] = test system: oxidized lipid products; assay: Human clinical trial, scavenging of oxidized lipid products; format: in vivo
Source text: Moreover, the pharmacological effect of the composition of the instant invention as a replacement of the statin model was unexpected. […] Reason: the instant invention physiologically provides more rate-limiting L-cysteine available in the cell together with the other constituents of glutathione.

Compound | water solubility [1] | scavenging of oxidized lipid products [2] [%]
N[C@@H](CSSC[C@H](N)C(=O)O)C(=O)O [L-cystine] | water insoluble | –
CC(=O)N[C@@H](CS)C(=O)O [N-acetylcysteine] | – | 1
